The text below walks through data of patent US10227362B2 (priority 2015, dated 2019).

Broadly, the IC50 is the concentration at which inhibition is half-maximal. Read a low IC50 as greater potency.

Values after ≈ are worked out from the molar mass of the structure shown.

The first assay relates to Mycobacterium bovis BCG strain TMC1019 (ATCC35737). Kind of assay: microbe, parasite or virus in culture. The assay is classed as cell-based. The settings on record: Mycobacterium tuberculosis variant bovis BCG, 24 h, read-out: M. bovis ATCC35737 (ug/mL).
In the case of `C[C@]1(CN2CCc3nc(-c4ccc(C(F)(F)F)cc4)ccc3C2)Cn2cc([N+](=O)[O-])nc2O1` [Compound 10, (S)-2-Methyl-6-nitro-2-((2-(4-(trifluoromethyl)phenyl)-7,8-dihydro-1,6-naphthyridin-6(5H)-yl)methyl)-2,3-dihydroimidazo[2,1-b]oxazole], the MIC was < 1 µg/mL.
As to `C[C@]1(CN2CCc3nc(-c4ccc(OC(F)(F)F)c(F)c4)ccc3C2)Cn2cc([N+](=O)[O-])nc2O1` [Compound 11, (S)-2-((2-(3-Fluoro-4-(trifluoromethoxy)phenyl)-7,8-dihydro-1,6-naphthyridin-6(5H)-yl)methyl)-2-methyl-6-nitro-2,3-dihydroimidazo[2,1-b]oxazole], the MIC fell in the range of 1 to 32 µg/mL (≈ 2.03 to 64.9 µM).
The same measure, in the same setting: then `C[C@]1(CN2CCc3nc(-c4cc(Cl)ccc4F)ccc3C2)Cn2cc([N+](=O)[O-])nc2O1` [Compound 15, (S)-2-((2-(5-Chloro-2-fluorophenyl)-7,8-dihydro-1,6-naphthyridin-6(5H)-yl)methyl)-2-methyl-6-nitro-2,3-dihydroimidazo[2,1-b]oxazole], with < 1 µg/mL; and `C[C@]1(CN2CCc3nc(-c4cccc(F)c4F)ccc3C2)Cn2cc([N+](=O)[O-])nc2O1` [Compound 16, (S)-2-((2-(2,3-Difluorophenyl)-7,8-dihydro-1,6-naphthyridin-6(5H)-yl)methyl)-2-methyl-6-nitro-2,3-dihydroimidazo[2,1-b]oxazole], with < 1 µg/mL.
On the same count and under the same terms, for `C[C@]1(CN2CCc3nc(-c4cc(F)ccc4F)ccc3C2)Cn2cc([N+](=O)[O-])nc2O1` [Compound 17, (S)-2-((2-(2,5-Difluorophenyl)-7,8-dihydro-1,6-naphthyridin-6(5H)-yl)methyl)-2-methyl-6-nitro-2,3-dihydroimidazo[2,1-b]oxazole] the value was < 1 µg/mL; for `C[C@]1(CN2CCc3nc(-c4ccc(F)c(Cl)c4)ccc3C2)Cn2cc([N+](=O)[O-])nc2O1` [Compound 18, (S)-2-((2-(3-Chloro-4-fluorophenyl)-7,8-dihydro-1,6-naphthyridin-6(5H)-yl)methyl)-2-methyl-6-nitro-2,3-dihydroimidazo[2,1-b]oxazole], < 1 µg/mL.
Still for that read-out and setting: then `C[C@]1(CN2CCc3nc(-c4cccc(Cl)c4F)ccc3C2)Cn2cc([N+](=O)[O-])nc2O1` [Compound 19, (S)-2-((2-(3-Chloro-2-fluorophenyl)-7,8-dihydro-1,6-naphthyridin-6(5H)-yl)methyl)-2-methyl-6-nitro-2,3-dihydroimidazo[2,1-b]oxazole], with < 1 µg/mL.
As to `C[C@]1(CN2CCc3nc(-c4cc(F)cc(Cl)c4)ccc3C2)Cn2cc([N+](=O)[O-])nc2O1` [Compound 21, (S)-2-((2-(3-Chloro-5-fluorophenyl)-7,8-dihydro-1,6-naphthyridin-6(5H)-yl)methyl)-2-methyl-6-nitro-2,3-dihydroimidazo[2,1-b]oxazole], the MIC was < 1 µg/mL.
On to `C[C@]1(CN2CCc3nc(-c4cc(F)ccc4Cl)ccc3C2)Cn2cc([N+](=O)[O-])nc2O1` [Compound 22, (S)-2-((2-(2-Chloro-5-fluorophenyl)-7,8-dihydro-1,6-naphthyridin-6(5H)-yl)methyl)-2-methyl-6-nitro-2,3-dihydroimidazo[2,1-b]oxazole], for which the MIC was < 1 µg/mL.
On to `C[C@]1(CN2CCc3nc(-c4ccc(Cl)cc4F)ccc3C2)Cn2cc([N+](=O)[O-])nc2O1` [Compound 23, (S)-2-((2-(4-Chloro-2-fluorophenyl)-7,8-dihydro-1,6-naphthyridin-6(5H)-yl)methyl)-2-methyl-6-nitro-2,3-dihydroimidazo[2,1-b]oxazole], for which the MIC was < 1 µg/mL.
The same measure, in the same setting: for `C[C@]1(CN2CCc3nc(C4CC4)ccc3C2)Cn2cc([N+](=O)[O-])nc2O1` [Compound 26, (S)-2-((2-Cyclopropyl-7,8-dihydro-1,6-naphthyridin-6(5H)-yl)methyl)-2-methyl-6-nitro-2,3-dihydroimidazo[2,1-b]oxazole] the value was < 1 µg/mL; for `C[C@]1(CN2CCc3nc(N4CCCCC4)ccc3C2)Cn2cc([N+](=O)[O-])nc2O1` [Compound 28, (S)-2-Methyl-6-nitro-2-((2-(piperidin-1-yl)-7,8-dihydro-1,6-naphthyridin-6(5H)-yl)methyl)-2,3-dihydroimidazo[2,1-b]oxazole], < 1 µg/mL.
The same measure, in the same setting: for `C[C@]1(CN2CCc3nc(Nc4ccc(F)cc4)ccc3C2)Cn2cc([N+](=O)[O-])nc2O1` [Compound 33, (S)—N-(4-Fluorophenyl)-6-((2-methyl-6-nitro-2,3-dihydroimidazo[2,1-b]oxazol-2-yl)methyl)-5,6,7,8-tetrahydro-1,6-naphthyridin-2-amine] the value was < 1 µg/mL; for `C[C@]1(CN2CCc3nc(-c4cc(F)cc(F)c4)ncc3C2)Cn2cc([N+](=O)[O-])nc2O1` [Compound 48, (S)-2-((2-(3,5-Difluorophenyl)-7,8-dihydropyrido[4,3-d]pyrimidin-6(5H)-yl)methyl)-2-methyl-6-nitro-2,3-dihydroimidazo[2,1-b]oxazole], < 1 µg/mL.
On to `C[C@]1(CN2CCc3nc(-c4ccsc4Cl)ccc3C2)Cn2cc([N+](=O)[O-])nc2O1` [Compound 53, (S)-2-((2-(2-Chlorothiophen-3-yl)-7,8-dihydro-1,6-naphthyridin-6(5H)-yl)methyl)-2-methyl-6-nitro-2,3-dihydroimidazo[2,1-b]oxazole], for which the MIC is < 1 µg/mL.
On the same count and under the same terms, for `C[C@]1(CN2CCc3nc(C4CCCCC4)ccc3C2)Cn2cc([N+](=O)[O-])nc2O1` [Compound 59, (S)-2-((2-Cyclohexyl-7,8-dihydro-1,6-naphthyridin-6(5H)-yl)methyl)-2-methyl-6-nitro-2,3-dihydroimidazo[2,1-b]oxazole] the value was < 1 µg/mL; for `C[C@]1(CN2CCc3oc(-c4ccc(F)cc4)cc3C2)Cn2cc([N+](=O)[O-])nc2O1` [Compound 64, (S)-2-(4-Fluorophenyl)-5-((2-methyl-6-nitro-2,3-dihydroimidazo[2,1-b]oxazol-2-yl)methyl)-4,5,6,7-tetrahydrofuro[3,2-c]pyridine], < 1 µg/mL; for `C[C@]1(CN2CCc3sc(-c4ccc(F)cc4)nc3C2)Cn2cc([N+](=O)[O-])nc2O1` [Compound 67, (S)-2-((2-(4-Fluorophenyl)-6,7-dihydrothiazolo[4,5-c]pyridin-5(4H)-yl)methyl)-2-methyl-6-nitro-2,3-dihydroimidazo[2,1-b]oxazole], < 1 µg/mL.
In the case of `C[C@]1(CN2Cc3nc(-c4ccc(OC(F)(F)F)cc4)sc3C2)Cn2cc([N+](=O)[O-])nc2O1` [Compound 73, (S)-2-Methyl-6-nitro-2-((2-(4-(trifluoromethoxy)phenyl)-4H-pyrrolo[3,4-d]thiazol-5(6H)-yl)methyl)-2,3-dihydroimidazo[2,1-b]oxazole], the MIC fell in the range of 1 to 32 µg/mL (≈ 2.14 to 68.5 µM).
Same read-out and setting: then `C[C@]1(Cn2cc3nc(-c4ccc(F)cc4)sc3c2)Cn2cc([N+](=O)[O-])nc2O1` [Compound 75, (S)-2-((2-(4-Fluorophenyl)-5H-pyrrolo[3,4-d]thiazol-5-yl)methyl)-2-methyl-6-nitro-2,3-dihydroimidazo[2,1-b]oxazole], with 1 to 32 µg/mL (≈ 2.5 to 80.1 µM); and `C[C@]1(CN2Cc3nc(-c4cc(F)c(F)cc4F)sc3C2)Cn2cc([N+](=O)[O-])nc2O1` [Compound 83, (S)-2-Methyl-6-nitro-2-((2-(2,4,5-trifluorophenyl)-4H-pyrrolo[3,4-d]thiazol-5(6H)-yl)methyl)-2,3-dihydroimidazo[2,1-b]oxazole], with < 1 µg/mL; and `C[C@]1(CN2Cc3nc(-c4ccc(F)c(F)c4)oc3C2)Cn2cc([N+](=O)[O-])nc2O1` [Compound 90, (S)-2-(3,4-Difluorophenyl)-5-((2-methyl-6-nitro-2,3-dihydroimidazo[2,1-b]oxazol-2-yl)methyl)-5,6-dihydro-4H-pyrrolo[3,4-d]oxazole], with < 1 µg/mL.
Same read-out and setting: then `C[C@]1(CN2Cc3nc(-c4cc(F)c(F)cc4F)oc3C2)Cn2cc([N+](=O)[O-])nc2O1` [Compound 94, (S)-5-((2-Methyl-6-nitro-2,3-dihydroimidazo[2,1-b]oxazol-2-yl)methyl)-2-(2,4,5-trifluorophenyl)-5,6-dihydro-4H-pyrrolo[3,4-d]oxazole], with < 1 µg/mL.

In the next assay the test system is Mycobacterium tuberculosis H37Rv strain. Kind of assay: In vitro MIC against M. tuberculosis H37Rv strain (MABA, Alamar Blue). The assay is classed as cell-based.
Conditions: not given
How it is done:
Part I: The in vitro efficacy of anti-Mycobacterium tuberculosis compounds was tested using H37Rv strain.
On the day of the test, the compound was dissolved in pure DMSO (Sigma 276855-2L) to a concentration of 10 mg/mL which was used as the mother liquor of the compound. 30 μL of DMSO was added to wells of column 2 to 11 s of the v-bottom 96-well plates (Axygen-wipp02280). 30 μL of the mother liquor of the compound was added to the well of column 2, after mixing, 30 μL was taken from the well of column 2 and added to the well of column 3, and then pipetted and mixed. The operation was taken to column 10. Column 11 was free of medicine and contained only 30 μL of DMSO. This was the “motherplate” of the compound. From column 2 to 11, the corresponding concentration of the compound was 5, 2.5, 1.25, 0.625, 0.3125, 0.156, 0.078, 0.039, 0.02, 0 mg/mL. […] A flat bottom 96-well plate (Greiner 655090) was used as a “daughterplate”. 98 μL of 7H9 (Sigma M0178) medium was added to the wells of all daughterplates. 2 μL of compound was extracted from the motherboard and added to the corresponding daughter plate. Line A and H, column 1 and 12 of the daughterplate contained only 7H9 medium.
The H37Rv strain in the glycerol cryovial was inoculated into 7H9 medium containing 0.05% Tween 80 and cultured for 4 weeks at 37° C. in a shaker with 200 rpm. The bacterial liquid was washed twice with 7H9 medium containing 0.05% Tween 80 and resuspended in the same medium. The absorbance of the bacteria liquid was adjusted to OD550=0.4-0.5 using the same medium. The bacteria liquid was sub-packed in microcentrifuge tubes and stored at −80° C. Storage time was no more than 1 month. On the day of the test, the packaged bacteria liquid would be […]. The bacteria liquid was diluted 20 times and then diluted 50 times with 7H9 medium, and a total of 1000 times dilution. The bacteria liquid would be used to inoculate on the daughterplate. 100 μL of bacterial liquid was inoculated in each well of the daughterboard, 100 μL 7H9 medium was added to column 12 and without bacteria liquid.
The test daughterplate was placed in an incubator at 37° C. and the humidity was maintained at >80%. A week later, 12.5 μL of 7H9 medium containing 20% Tween 80 and 20 μL of Alamar Blue (Invitrogen DAL1100) were added to the well of a column 1 containing bacteria and the well of a column 12 without bacteria every day, and then continue to incubate for 24 hours and observed. When the added Alamar Blue was reduced to pink in 24 hours by the bacteria liquid in the well of column 1, the 7H9 medium containing 20% Tween 80 and Alamar Blue were added to all wells on the test plate and the fluorescence values were measured after incubation for 24 hours at 37° C.
Background: Alamar Blue is a resazurin reagent that responds to reducing activity.
As to `C[C@]1(CN2CCc3nc(-c4ccc(C(F)(F)F)cc4)ccc3C2)Cn2cc([N+](=O)[O-])nc2O1` [Compound 10, (S)-2-Methyl-6-nitro-2-((2-(4-(trifluoromethyl)phenyl)-7,8-dihydro-1,6-naphthyridin-6(5H)-yl)methyl)-2,3-dihydroimidazo[2,1-b]oxazole], the MIC was < 1 µg/mL.
The same measure, in the same setting: then `C[C@]1(CN2CCc3sc(-c4ccc(F)cc4)nc3C2)Cn2cc([N+](=O)[O-])nc2O1` [Compound 67, (S)-2-((2-(4-Fluorophenyl)-6,7-dihydrothiazolo[4,5-c]pyridin-5(4H)-yl)methyl)-2-methyl-6-nitro-2,3-dihydroimidazo[2,1-b]oxazole], with < 1 µg/mL.

The test system of the next assay is Vero Cell. Kind of assay: Vero cell cytotoxicity. The assay is classed as cell-based. The settings on record: Chlorocebus sabaeus, Vero cells.
For the compound `C[C@]1(CN2CCc3nc(-c4ccc(C(F)(F)F)cc4)ccc3C2)Cn2cc([N+](=O)[O-])nc2O1` [Compound 10, (S)-2-Methyl-6-nitro-2-((2-(4-(trifluoromethyl)phenyl)-7,8-dihydro-1,6-naphthyridin-6(5H)-yl)methyl)-2,3-dihydroimidazo[2,1-b]oxazole], the 50% inhibitory concentration (IC50) was > 32 µg/mL.
On the same count and under the same terms, then `C[C@]1(CN2CCc3sc(-c4ccc(F)cc4)nc3C2)Cn2cc([N+](=O)[O-])nc2O1` [Compound 67, (S)-2-((2-(4-Fluorophenyl)-6,7-dihydrothiazolo[4,5-c]pyridin-5(4H)-yl)methyl)-2-methyl-6-nitro-2,3-dihydroimidazo[2,1-b]oxazole], with > 32 µg/mL.
